Numbered stars: 1 amine (or outer) side, 2 acyl side, 3 side chain; on linkers, the order of the positions; unused ones are H or OH. Bridge positions count the residues as written; N and C are the ends. Side chains are listed from the residue outwards. Peptide text beside a SMILES is read from it. * marks the point of attachment. C20 diacid = O=C(O)CCCCCCCCCCCCCCCCCCC(=O)*; γGlu = O=C(O)[C@H](CCC(=O)[*:2])N[*:1]; AEEA = NCCOCCOCC(=O)O

The assay deals with T1, human calcitonin (a) receptor in BHK570 cells (Homo sapiens, UniProt P30988).
T1 construct: expressed in transfected cells
T1 sequence (P30988 25-474): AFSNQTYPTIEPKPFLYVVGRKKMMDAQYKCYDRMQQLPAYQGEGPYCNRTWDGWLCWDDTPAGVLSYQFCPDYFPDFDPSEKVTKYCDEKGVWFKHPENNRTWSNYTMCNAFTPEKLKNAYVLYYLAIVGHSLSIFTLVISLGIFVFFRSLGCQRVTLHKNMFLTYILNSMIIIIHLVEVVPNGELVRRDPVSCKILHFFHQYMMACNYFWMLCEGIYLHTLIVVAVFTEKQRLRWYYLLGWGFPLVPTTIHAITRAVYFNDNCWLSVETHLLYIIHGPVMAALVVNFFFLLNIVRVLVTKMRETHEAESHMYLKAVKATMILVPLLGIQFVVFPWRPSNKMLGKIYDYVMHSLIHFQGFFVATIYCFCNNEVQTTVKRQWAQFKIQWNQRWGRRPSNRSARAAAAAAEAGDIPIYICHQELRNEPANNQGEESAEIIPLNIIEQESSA
Put plainly: ASSAY (II)a functional assay, human calcitonin receptor (CRE luciferase). In kind it is cell-based. The following applies: read-out: hCTR funct. EC50. An outline of the steps: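 Cells were seeded and cultured overnight, then incubated with standard or sample for 3 h at 37° C in serum-containing medium at pH 7.4. The medium was then swapped for PBS, LucLite was added for 30 min at room temperature, and luminescence was recorded. Cells were BHK with CRE-luc and calcitonin receptor, ± RAMP-3.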
The term EC50 denotes the concentration at which the effect is half-maximal. Turning to `CC[C@H](C)[C@H](NC(=O)[C@H](C)NC(=O)CNC(=O)[C@H](Cc1ccccc1)NC(=O)[C@H](CC(N)=O)NC(=O)[C@@H]1CCCN1C(=O)[C@H](CO)NC(=O)[C@H](CO)NC(=O)[C@H](Cc1c[nH]cn1)NC(=O)[C@H](CCCNC(=N)N)NC(=O)[C@H](CC(C)C)NC(=O)[C@H](Cc1ccccc1)NC(=O)[C@H](Cc1c[nH]cn1)NC(=O)[C@H](C)NC(=O)[C@H](CC(C)C)NC(=O)[C@H](CCCNC(=N)N)NC(=O)[C@H](CCC(N)=O)NC(=O)[C@@H](NC(=O)[C@H](C)NC(=O)[C@@H]1CSSC[C@H](NC(=O)[C@@H](N)CCCCNC(=O)CC[C@H](NC(=O)CCCCCCCCCCCCCCCCCCC(=O)O)C(=O)O)C(=O)N[C@@H](CC(N)=O)C(=O)N[C@@H]([C@@H](C)O)C(=O)N[C@@H](C)C(=O)N[C@@H]([C@@H](C)O)C(=O)N1)[C@@H](C)O)C(=O)N1CCC[C@H]1C(=O)N[C@@H](CO)C(=O)N[C@@H](CO)C(=O)N[C@H](C(=O)N[C@@H](CC(N)=O)C(=O)N[C@H](C(=O)NCC(=O)N[C@@H](CO)C(=O)N[C@@H](Cc1c[nH]cn1)C(=O)N[C@H](C(=O)N[C@@H](Cc1ccc(O)cc1)C(N)=O)[C@@H](C)O)C(C)C)[C@@H](C)O` [Example 66] (H-K([γGlu-C20 diacid])CNTATCATQRLAHFLRHSSPNFGAIPSSTNVGSHTY-NH2; disulfide 2-7; N-terminus assumed), the EC50 was 0.542 nM.

Regarding `CC[C@H](C)[C@H](NC(=O)[C@H](C)NC(=O)CNC(=O)[C@H](Cc1ccccc1)NC(=O)[C@H](CC(N)=O)NC(=O)[C@@H]1CCCN1C(=O)[C@H](CO)NC(=O)[C@H](CO)NC(=O)[C@H](Cc1c[nH]cn1)NC(=O)[C@H](CCCNC(=N)N)NC(=O)[C@H](CC(C)C)NC(=O)[C@H](Cc1ccccc1)NC(=O)[C@H](CCCNC(=N)N)NC(=O)[C@H](C)NC(=O)[C@H](CC(C)C)NC(=O)[C@H](CCCNC(=N)N)NC(=O)[C@H](CCC(N)=O)NC(=O)[C@@H](NC(=O)[C@H](C)NC(=O)[C@@H]1CSSC[C@H](NC(=O)[C@@H](N)CCCCNC(=O)COCCOCCNC(=O)CC[C@H](NC(=O)CCCCCCCCCCCCCCCCCCC(=O)O)C(=O)O)C(=O)N[C@@H](CC(N)=O)C(=O)N[C@@H]([C@@H](C)O)C(=O)N[C@@H](C)C(=O)N[C@@H]([C@@H](C)O)C(=O)N1)[C@@H](C)O)C(=O)N1CCC[C@H]1C(=O)N[C@@H](CO)C(=O)N[C@@H](CO)C(=O)N[C@H](C(=O)N[C@@H](CC(N)=O)C(=O)N[C@H](C(=O)NCC(=O)N[C@@H](CO)C(=O)N[C@@H](CC(N)=O)C(=O)N[C@H](C(=O)N[C@@H](Cc1ccc(O)cc1)C(N)=O)[C@@H](C)O)C(C)C)[C@@H](C)O` [Example 82] (H-K([AEEA-γGlu-C20 diacid])CNTATCATQRLARFLRHSSPNFGAIPSSTNVGSNTY-NH2; disulfide 2-7; N-terminus assumed), the half-maximal effective concentration (EC50) was found to be 12.7 nM.

On to `CC[C@H](C)[C@H](NC(=O)[C@H](C)NC(=O)CNC(=O)[C@H](Cc1ccccc1)NC(=O)[C@H](CC(N)=O)NC(=O)[C@@H]1CCCN1C(=O)[C@H](CO)NC(=O)[C@H](CO)NC(=O)[C@H](Cc1c[nH]cn1)NC(=O)[C@H](CCCNC(=N)N)NC(=O)[C@H](CC(C)C)NC(=O)[C@H](Cc1ccccc1)NC(=O)[C@H](Cc1c[nH]cn1)NC(=O)[C@H](C)NC(=O)[C@H](CC(C)C)NC(=O)[C@H](CCCNC(=N)N)NC(=O)[C@H](CCC(N)=O)NC(=O)[C@@H](NC(=O)[C@H](C)NC(=O)[C@@H]1CSSC[C@H](NC(=O)[C@@H](N)CCCCNC(=O)COCCOCCNC(=O)CCCCCCCCCCCCCCCCCCC(=O)O)C(=O)N[C@@H](CC(N)=O)C(=O)N[C@@H]([C@@H](C)O)C(=O)N[C@@H](C)C(=O)N[C@@H]([C@@H](C)O)C(=O)N1)[C@@H](C)O)C(=O)N1CCC[C@H]1C(=O)N[C@@H](CO)C(=O)N[C@@H](CO)C(=O)N[C@H](C(=O)N[C@@H](CC(N)=O)C(=O)N[C@H](C(=O)NCC(=O)N[C@@H](CO)C(=O)N[C@@H](CC(N)=O)C(=O)N[C@H](C(=O)N[C@@H](Cc1ccc(O)cc1)C(N)=O)[C@@H](C)O)C(C)C)[C@@H](C)O` [Example 90], for which the concentration for a half-maximal effect (EC50) stood at 0.236 nM.

Take `CC[C@H](C)[C@H](NC(=O)[C@H](C)NC(=O)CNC(=O)[C@H](Cc1ccccc1)NC(=O)[C@H](CC(N)=O)NC(=O)[C@@H]1CCCN1C(=O)[C@H](CO)NC(=O)[C@H](CO)NC(=O)[C@H](Cc1c[nH]cn1)NC(=O)[C@H](CCCNC(=N)N)NC(=O)[C@H](CC(C)C)NC(=O)[C@H](Cc1ccccc1)NC(=O)[C@H](CC(N)=O)NC(=O)[C@H](C)NC(=O)[C@H](CC(C)C)NC(=O)[C@H](CCCNC(=N)N)NC(=O)[C@H](CCC(N)=O)NC(=O)[C@@H](NC(=O)[C@H](C)NC(=O)[C@@H]1CSSC[C@H](NC(=O)[C@@H](N)CCCCNC(=O)COCCOCCNC(=O)CC[C@H](NC(=O)CCCCCCCCCCCCCCCCCCC(=O)O)C(=O)O)C(=O)N[C@@H](CC(N)=O)C(=O)N[C@@H]([C@@H](C)O)C(=O)N[C@@H](C)C(=O)N[C@@H]([C@@H](C)O)C(=O)N1)[C@@H](C)O)C(=O)N1CCC[C@H]1C(=O)N[C@@H](CO)C(=O)N[C@@H](CO)C(=O)N[C@H](C(=O)N[C@@H](CC(N)=O)C(=O)N[C@H](C(=O)NCC(=O)N1CCC[C@H]1C(=O)N[C@@H](CC(N)=O)C(=O)N[C@H](C(=O)N[C@@H](Cc1ccc(O)cc1)C(N)=O)[C@@H](C)O)C(C)C)[C@@H](C)O` [Example 50]: the EC50 was found to be 0.662 nM.

On to `CC(C)C[C@H](NC(=O)[C@H](CCCNC(=N)N)NC(=O)[C@H](CCC(N)=O)NC(=O)[C@@H](NC(=O)[C@H](C)NC(=O)[C@@H]1CSSC[C@H](NC(=O)[C@@H](N)CCCCNC(=O)CC[C@H](NC(=O)CC[C@H](NC(=O)CCCCCCCCCCCCCCCCCCC(=O)O)C(=O)O)C(=O)O)C(=O)N[C@@H](CC(N)=O)C(=O)N[C@@H]([C@@H](C)O)C(=O)N[C@@H](C)C(=O)N[C@@H]([C@@H](C)O)C(=O)N1)[C@@H](C)O)C(=O)N[C@@H](C)C(=O)N[C@@H](CC(=O)O)C(=O)N[C@@H](Cc1ccccc1)C(=O)N[C@@H](CC(C)C)C(=O)N[C@@H](CCCNC(=N)N)C(=O)N[C@@H](Cc1c[nH]cn1)C(=O)N[C@@H](CO)C(=O)N[C@@H](CO)C(=O)N1CCC[C@H]1C(=O)N[C@@H](CC(N)=O)C(=O)N[C@@H](Cc1ccccc1)C(=O)NCC(=O)N[C@@H](C)C(=O)N1CCC[C@H]1C(=O)N[C@@H](CC(C)C)C(=O)N[C@@H](CO)C(=O)N[C@@H](CO)C(=O)N[C@H](C(=O)N[C@@H](CC(N)=O)C(=O)N[C@H](C(=O)NCC(=O)N[C@@H](CO)C(=O)N[C@@H](CC(=O)O)C(=O)N[C@H](C(=O)N[C@@H](Cc1ccc(O)cc1)C(N)=O)[C@@H](C)O)C(C)C)[C@@H](C)O` [Example 1] (H-K([γGlu-γGlu-C20 diacid])CNTATCATQRLADFLRHSSPNFGAPLSSTNVGSDTY-NH2; disulfide 2-7), for which the EC50 is 2.7 nM.

Regarding `CC[C@H](C)[C@H](NC(=O)[C@H](C)NC(=O)CNC(=O)[C@H](Cc1ccccc1)NC(=O)[C@H](CC(N)=O)NC(=O)[C@@H]1CCCN1C(=O)[C@H](CO)NC(=O)[C@H](CO)NC(=O)[C@H](Cc1c[nH]cn1)NC(=O)[C@H](CCCNC(=N)N)NC(=O)[C@H](CC(C)C)NC(=O)[C@H](Cc1ccccc1)NC(=O)[C@H](Cc1c[nH]cn1)NC(=O)[C@H](C)NC(=O)[C@H](CC(C)C)NC(=O)[C@H](CCCNC(=N)N)NC(=O)[C@H](CCC(N)=O)NC(=O)[C@@H](NC(=O)[C@H](C)NC(=O)[C@@H]1CSSC[C@H](NC(=O)[C@@H](N)CCCCNC(=O)COCCOCCNC(=O)CC[C@H](NC(=O)CCCCCCCCCCCCCCCCCCC(=O)O)C(=O)O)C(=O)N[C@@H](CC(N)=O)C(=O)N[C@@H]([C@@H](C)O)C(=O)N[C@@H](C)C(=O)N[C@@H]([C@@H](C)O)C(=O)N1)[C@@H](C)O)C(=O)N1CCC[C@H]1C(=O)N[C@@H](CO)C(=O)N[C@@H](CO)C(=O)N[C@H](C(=O)N[C@@H](CC(N)=O)C(=O)N[C@H](C(=O)NCC(=O)N[C@@H](CO)C(=O)N[C@@H](CC(N)=O)C(=O)N[C@H](C(=O)N[C@@H](Cc1ccc(O)cc1)C(N)=O)[C@@H](C)O)C(C)C)[C@@H](C)O` [Example 69] (H-K([AEEA-γGlu-C20 diacid])CNTATCATQRLAHFLRHSSPNFGAIPSSTNVGSNTY-NH2; disulfide 2-7; N-terminus assumed), the EC50 turned out to be 1.25 nM.

For the molecule `CC[C@H](C)[C@H](NC(=O)[C@H](C)NC(=O)CNC(=O)[C@H](Cc1ccccc1)NC(=O)[C@H](CC(N)=O)NC(=O)[C@H](CCCCNC(=O)CC[C@H](NC(=O)CC[C@H](NC(=O)CCCCCCCCCCCCCCCCCCC(=O)O)C(=O)O)C(=O)O)NC(=O)[C@H](CO)NC(=O)[C@H](CO)NC(=O)[C@H](Cc1c[nH]cn1)NC(=O)[C@H](CCCNC(=N)N)NC(=O)[C@H](CC(C)C)NC(=O)[C@H](Cc1ccccc1)NC(=O)[C@H](CC(=O)O)NC(=O)[C@H](C)NC(=O)[C@H](CC(C)C)NC(=O)[C@H](CCCNC(=N)N)NC(=O)[C@H](CCC(N)=O)NC(=O)[C@@H](NC(=O)[C@H](C)NC(=O)[C@@H]1CSSC[C@H](NC(=O)[C@@H](N)CCCCN)C(=O)N[C@@H](CC(N)=O)C(=O)N[C@@H]([C@@H](C)O)C(=O)N[C@@H](C)C(=O)N[C@@H]([C@@H](C)O)C(=O)N1)[C@@H](C)O)C(=O)N1CCC[C@H]1C(=O)N[C@@H](CO)C(=O)N[C@@H](CO)C(=O)N[C@H](C(=O)N[C@@H](CC(N)=O)C(=O)N[C@H](C(=O)NCC(=O)N[C@@H](CO)C(=O)N[C@@H](CC(=O)O)C(=O)N[C@H](C(=O)N[C@@H](Cc1ccc(O)cc1)C(N)=O)[C@@H](C)O)C(C)C)[C@@H](C)O` [Example 59] (H-KCNTATCATQRLADFLRHSSK([γGlu-γGlu-C20 diacid])NFGAIPSSTNVGSDTY-NH2; disulfide 2-7; N-terminus assumed), the EC50 turned out to be 1.95 nM.

The values above are taken from patent US9023789B2, “Amylin analogs and pharmaceutical compositions thereof” (Novo Nordisk A/S, priority 2012, dated 2015).
